{"source": "paper PMC11048244", "about": "“Development of Improved Spectrophotometric Assays for Biocatalytic Silyl Ether Hydrolysis” (Biomolecules, 2024)"}
{"system": "T1, TF-Silα-Strep (silicatein-α, Silα)", "T1 construct": "trigger factor fused at N-terminus, Strep-tag II at C-terminus; recombinant, StrepTrap purified", "experiment": "UV-VIS spectrophotometric silyl ether hydrolysis, net initial rates", "type": "biochemical", "details": "10% v/v 1,4-dioxane, 50 mM Tris, 100 mM NaCl, pH 8.5", "text": "UV-VIS spectrophotometric silyl ether hydrolysis, net initial rates on TF-Silα-Strep (silicatein-α, Silα)", "units": {"Km": "µM"}}
{"smiles": "Cc1cc(O[Si](C)(C)C(C)(C)C)ccc1[N+](=O)[O-]", "note": "[compound 5, tert-Butyldimethyl(3-methyl-4-nitrophenoxy)silane]", "Km": "34.6 ± 4.11"}
{"smiles": "CC(C)C(C)(C)[Si](C)(C)Oc1ccc([N+](=O)[O-])cc1", "note": "[compound 2, 2]", "Km": "24.1 ± 5"}
{"smiles": "Cc1cc([N+](=O)[O-])ccc1O[Si](C)(C)C(C)(C)C", "note": "[compound 4, tert-Butyldimethyl(2-methyl-4-nitrophenoxy)silane]", "Km": "72.5 ± 15.3"}
{"smiles": "CC(C)(C)[Si](C)(C)Oc1ccc([N+](=O)[O-])cc1", "note": "[compound 1, tert-butyldimethyl(4-nitrophenoxy)silane]", "Km": "44.4 ± 11.9"}
{"smiles": "CC(C)[Si](Oc1ccc([N+](=O)[O-])cc1)(C(C)C)C(C)C", "note": "[compound 3, 3]", "Km": "20.4 ± 8.13"}
